Laboratory results as given in patent US20250129027A1 (APOGEE PHARMACEUTICALS, INC., priority 2023, published 2025).
pIC50: −log10 of the molar value. In brackets after ≈: the same amount, converted by molar mass. Where two headings read alike, the source gives them in different places.

Key:
[1] = Plasma stability (LC-MS/MS, % parent compound remaining, half-life); format: in vitro ADME; settings: human plasma; for half-life at 1 μM: 37° C., 0-240 mins, read-out: Human Plasma Stability (t1/2, min); for plasma stability and/or aqueous solubility compared to reference compound URB597: see Table 5
Experimental: Exemplary compounds described herewith were assayed for plasma stability (various species).
Plasma was removed from deep freezer and allowed to thaw at room temperature (or at 37° C. if needed). Plasma was then centrifuged at 4,000 rpm at RT for 10 min and supernatant was collected and used for the assay: • Drug test tubes: 297 μL plasma/drug test tube, duplicate/drug. • Blank test tubes: 297 μL plasma/Blank test tube, duplicate, too. (Optional, if assay system is stable and consistent) • T0 plasma tube: […] X No. of total sample tubes+50 μL extra for T0 extraction. • (Note: equivalent proportion of solvent mixture as added in drug test tubes will be added before T0 extraction!)
Take out the pre-warmed plasma tubes from the 37° C. incubator. Add 3 μL of 100 μM stock solution (or, equivalent proportion of the solvent mixture to T0 plasma tube for T0 extraction) to each corresponding sample tubes in order, vortex gently (3×) to mix. Finish the sample tubes orderly and quickly, then transfer them to the Thermomixer (program & 37° C. ready), and start the Thermomixer. Record starting time on paper & start the timer for 15 min for the 1st sampling time point.
Now add the equivalent amount of solvent mixture to the T0 plasma tube, mix, and transfer 50 μL plasma to each of the T0 extracting tubes, vortex 20s and placed on ice. Vortex 10s again before centrifuging the samples at 14,000 rpm for 5 min at 4° C.
Repeat the above procedures at each time point (15, 30, 60, 120, 240 min) by transferring 50 μL plasma samples from the testing tubes to the corresponding extracting tubes, in the same order and time scheme as in the addition of the drug to the plasma samples at the beginning of the study.
• Kel=Slope of LN % PCR vs time
Half life (t½)=0.693/Kel (1)

human recombinant FAAH = human recombinant FAAH (Homo sapiens (Human), UniProt O00519); test: In vitro inhibition of FAAH activity (fluorescent inhibitor screening kit, AMC arachidonoyl amide); format: biochemical
Outline: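 Fluorogenic kit assay: AMC arachidonoyl amide is cleaved by human recombinant FAAH, read at 340-360/450-465 nm. Percent inhibition versus non-treated control; IC50 values derived from multiple compound concentrations where tested.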

human recombinant MAGL = human recombinant MAGL (Homo sapiens (Human), UniProt Q99685); test: In vitro inhibition of MAGL activity (inhibitor screening kit, 4-nitrophenylacetate); format: biochemical; settings: human recombinant MAGL
Outline: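 Percent inhibition derived from absorbance (405-412 nm) of treated wells relative to untreated enzyme control. Human recombinant MAGL with 4-nitrophenylacetate substrate, whose cleavage yields yellow 4-nitrophenol.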

[2] = Aqueous solubility in PBS buffer pH 7.4 (LC-MS); format: physicochemical; settings: phosphate buffer, kinetic from dmso stock, PBS buffer pH 7.4, room temperature, spiked at 100 μM from DMSO stock
Experimental: Compounds as described herewith were analyzed for their aqueous solubility.
The aqueous solubility of compounds were determined using standard protocols. To illustrate the experimental protocol, the analysis of a representative compound is described. Exemplary compound of Example 158 (MW: 380.4 g/mol) was analyzed in a buffer system at specified pH (phosphate buffer, pH 7.4). This was accomplished by spiking a DMSO stock solution of the test compound at a final concentration of 100 μM in buffer.
Solubility calculation: This is a quantitative assay. The mixture at the end of the assay is filtered by 0.22 micron syringe filter and after 5× dilution in diluent, it was analyzed versus a calibration curve using LC-MS.

[3] = FAAH, values as listed in Table 5, read-out: IC50
[4] = human recombinant FAAH, read-out: Inhibition on FAAH activity (IC50)

Chain of human recombinant MAGL (Q99685 whole entry): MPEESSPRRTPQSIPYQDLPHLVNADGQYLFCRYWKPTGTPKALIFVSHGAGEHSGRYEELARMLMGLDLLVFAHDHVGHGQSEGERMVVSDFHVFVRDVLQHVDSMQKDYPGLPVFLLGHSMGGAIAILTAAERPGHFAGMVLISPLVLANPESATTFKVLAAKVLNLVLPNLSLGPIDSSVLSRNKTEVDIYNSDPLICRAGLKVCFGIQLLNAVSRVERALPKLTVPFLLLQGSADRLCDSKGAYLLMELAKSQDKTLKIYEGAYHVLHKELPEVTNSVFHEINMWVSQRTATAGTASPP
Chain of human recombinant FAAH (O00519 whole entry): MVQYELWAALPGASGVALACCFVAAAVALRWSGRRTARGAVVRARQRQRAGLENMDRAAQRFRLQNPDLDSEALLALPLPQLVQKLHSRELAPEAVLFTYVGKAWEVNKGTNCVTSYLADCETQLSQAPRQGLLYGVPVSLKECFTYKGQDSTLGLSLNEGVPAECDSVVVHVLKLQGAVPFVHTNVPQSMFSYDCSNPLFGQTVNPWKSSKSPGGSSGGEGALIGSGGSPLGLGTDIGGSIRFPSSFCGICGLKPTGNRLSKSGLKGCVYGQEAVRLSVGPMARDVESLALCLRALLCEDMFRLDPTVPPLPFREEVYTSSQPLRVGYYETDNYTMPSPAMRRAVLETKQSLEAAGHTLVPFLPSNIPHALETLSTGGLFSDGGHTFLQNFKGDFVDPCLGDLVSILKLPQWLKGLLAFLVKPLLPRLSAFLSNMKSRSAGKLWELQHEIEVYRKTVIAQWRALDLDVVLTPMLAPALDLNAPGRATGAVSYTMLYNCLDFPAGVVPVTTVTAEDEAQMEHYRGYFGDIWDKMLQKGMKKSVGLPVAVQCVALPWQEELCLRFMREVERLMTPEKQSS

CSc1ccc(OC(=O)NC2CCCCCC2)cc1-c1cncc(-c2nnco2)c1 [Example 191, 3-(5-(1,3,4-oxadiazol-2-yl)pyridin-3-yl)-4-(methylthio)phenyl cycloheptylcarbamate]
half-life at 1 μM [1]: 31 min
plasma stability and/or aqueous solubility compared to reference compound URB597 [1]: improved plasma stability, improved aqueous solubility, or improved plasma stability and aqueous solubility
pIC50 (human recombinant FAAH; [3]): 6.82
pIC50 (human recombinant FAAH; [4]): 6.81
pIC50 (human recombinant MAGL): < 5.00
solubility [2]: 11.9 µM (≈ 5.05 µg/mL)

COc1cc(OC(=O)NC2CCCCCC2)cc(-c2cncc(-c3nnco3)c2)c1 [Example 179, 3-(5-(1,3,4-oxadiazol-2-yl)pyridin-3-yl)-5-methoxyphenyl cycloheptylcarbamate]
half-life at 1 μM [1]: 18 min
pIC50 (human recombinant FAAH; [3]): 7.04
pIC50 (human recombinant FAAH; [4]): 7.04
pIC50 (human recombinant MAGL): 4.30 to 5.00
solubility [2]: 9.2 µM (≈ 3.76 µg/mL)

O=C(Oc1cccc(-c2cncc(-c3nnco3)c2)c1)N1CC2(CCC2)C1 [Example 146, 3-(5-(1,3,4-oxadiazol-2-yl)pyridin-3-yl)phenyl 2-azaspiro[3.3]heptane-2-carboxylate]
half-life at 1 μM [1]: 186 min
plasma stability and/or aqueous solubility compared to reference compound URB597 [1]: improved plasma stability, improved aqueous solubility, or improved plasma stability and aqueous solubility
pIC50 (human recombinant FAAH; [3]): 6.40
pIC50 (human recombinant FAAH; [4]): 6.40
pIC50 (human recombinant MAGL): < 5.00
solubility [2]: 82.7 µM (≈ 30 µg/mL)

O=C(NC1CCCCCC1)Oc1ccc(F)c(-c2cncc(-c3ncco3)c2)c1 [Example 87, 4-fluoro-3-(5-(oxazol-2-yl)pyridin-3-yl)phenyl cycloheptylcarbamate]
half-life at 1 μM [1]: 7 min
pIC50 (human recombinant FAAH; [3]): 7.62
pIC50 (human recombinant FAAH; [4]): 7.62
pIC50 (human recombinant MAGL): < 5.00
solubility [2]: 8.6 µM (≈ 3.4 µg/mL)

O=C(NC1CCCCCC1)Oc1cc(O)cc(-c2cncc(-c3nnco3)c2)c1 [Example 165, 3-(5-(1,3,4-oxadiazol-2-yl)pyridin-3-yl)-5-hydroxyphenyl cycloheptylcarbamate]
half-life at 1 μM [1]: 28 min
pIC50 (human recombinant FAAH; [3]): 7.59
pIC50 (human recombinant FAAH; [4]): 7.59
pIC50 (human recombinant MAGL): < 5.00
solubility [2]: 22.6 µM (≈ 8.91 µg/mL)

O=C(NC1CCCCCC1)Oc1cccc(-c2cncc(-c3ncn[nH]3)c2)c1 [Example 225, 3-(5-(1H-1,2,4-triazol-5-yl)pyridin-3-yl)phenyl cycloheptyl carbamate]
half-life at 1 μM [1]: 47 min
plasma stability and/or aqueous solubility compared to reference compound URB597 [1]: improved plasma stability, improved aqueous solubility, or improved plasma stability and aqueous solubility
pIC50 (human recombinant FAAH; [3]): 6.75
pIC50 (human recombinant FAAH; [4]): 6.75
pIC50 (human recombinant MAGL): ~5.00
solubility [2]: 8.6 µM (≈ 3.25 µg/mL)

COc1ccc(OC(=O)NC2CCCCCC2)cc1-c1cncc(-c2ncco2)c1 [Example 83, 4-methoxy-3-(5-(oxazol-2-yl)pyridin-3-yl)phenyl cycloheptylcarbamate]
half-life at 1 μM [1]: 194 min
plasma stability and/or aqueous solubility compared to reference compound URB597 [1]: improved plasma stability, improved aqueous solubility, or improved plasma stability and aqueous solubility
pIC50 (human recombinant FAAH; [3]): 6.95
pIC50 (human recombinant FAAH; [4]): 7.00 to 8.00
pIC50 (human recombinant MAGL): < 5.00
solubility [2]: 16.3 µM (≈ 6.64 µg/mL)

O=C(NC1CCCCCC1)Oc1ccc(O)c(-c2cncc(-c3ncn[nH]3)c2)c1 [Example 231, 3-(5-(1H-1,2,4-triazol-5-yl)pyridin-3-yl)-4-hydroxyphenyl cycloheptylcarbamate]
half-life at 1 μM [1]: 634 min
plasma stability and/or aqueous solubility compared to reference compound URB597 [1]: improved plasma stability, improved aqueous solubility, or improved plasma stability and aqueous solubility
pIC50 (human recombinant FAAH; [3]): 6.86
pIC50 (human recombinant FAAH; [4]): 6.86
pIC50 (human recombinant MAGL): < 5.00
solubility [2]: 78.8 µM (≈ 31 µg/mL)

O=C(NC1CCCCC1)Oc1cccc(-c2cncc(-c3ccco3)c2)c1 [Example 51, 3-(5-(furan-2-yl)pyridin-3-yl)phenyl cyclohexylcarbamate]
half-life at 1 μM [1]: 8 min
pIC50 (human recombinant FAAH; [3]): 7.12
pIC50 (human recombinant FAAH; [4]): 7.12
pIC50 (human recombinant MAGL): < 5.00
solubility [2]: 1.4 µM (≈ 0.507 µg/mL)

O=C(NC1CCCCCC1)Oc1cccc(-c2cncc(-c3cccs3)c2)c1 [Example 64, 3-(5-(thiophen-2-yl)pyridin-3-yl)phenyl cycloheptylcarbamate]
half-life at 1 μM [1]: 24 min
pIC50 (human recombinant FAAH; [3]): 7.41
pIC50 (human recombinant FAAH; [4]): 7.41
pIC50 (human recombinant MAGL): < 5.00

O=C(NC1CCCCCC1)Oc1ccc(OC(F)(F)F)c(-c2cncc(-c3ncco3)c2)c1 [Example 91, 3-(5-(oxazol-2-yl)pyridin-3-yl)-4-(trifluoromethoxy)phenyl cycloheptylcarbamate]
half-life at 1 μM [1]: 14 min
pIC50 (human recombinant FAAH; [3]): 6.31
pIC50 (human recombinant FAAH; [4]): 6.00 to 7.00
pIC50 (human recombinant MAGL): < 5.00
solubility [2]: 2.4 µM (≈ 1.11 µg/mL)

O=C(NC1CCCCCC1)Oc1ccc(F)c(-c2cncc(-c3nnco3)c2)c1 [Example 194, 3-(5-(1,3,4-oxadiazol-2-yl)pyridin-3-yl)-4-fluorophenyl cycloheptylcarbamate]
half-life at 1 μM [1]: 41 min
plasma stability and/or aqueous solubility compared to reference compound URB597 [1]: improved plasma stability, improved aqueous solubility, or improved plasma stability and aqueous solubility
pIC50 (human recombinant FAAH; [3]): 7.31
pIC50 (human recombinant FAAH; [4]): 7.31
pIC50 (human recombinant MAGL): < 5.00

O=C(NC1CCCCCC1)Oc1cc(F)cc(-c2cncc(-c3nnco3)c2)c1 [Example 198, 3-(5-(1,3,4-oxadiazol-2-yl)pyridin-3-yl)-5-fluorophenyl cycloheptylcarbamate]
half-life at 1 μM [1]: 4.7 min
pIC50 (human recombinant FAAH; [3]): 6.88
pIC50 (human recombinant FAAH; [4]): 6.88
pIC50 (human recombinant MAGL): < 5.00
solubility [2]: 5.7 µM (≈ 2.26 µg/mL)

O=C(NC1CCCCC1)Oc1cccc(-c2cncc(-c3nnco3)n2)c1 [Example 267, 3-(6-(1,3,4-oxadiazol-2-yl)pyrazin-2-yl)phenyl cyclohexylcarbamate]
half-life at 1 μM [1]: 12 min
pIC50 (human recombinant FAAH; [3]): 6.85
pIC50 (human recombinant FAAH; [4]): 6.85
pIC50 (human recombinant MAGL): < 5.00
solubility [2]: 73.6 µM (≈ 26.9 µg/mL)
